This is an account of results in paper PMC6445228, “Synthesis and biological evaluation of anti-Toxoplasma gondii activity of a novel scaffold of thiazolidinone derivatives” (Journal of Enzyme Inhibition and Medicinal Chemistry, 2017).

Each structure is given as a SMILES string. pIC50: −log10 of the molar value. Like-named read-outs stand apart in the source and are kept apart here. Where only a bound is given, the exact number is not on record here.

For data set [1], the system named is T. gondii RH-2 F tachyzoites. As to the kind of experiment: Five-day growth inhibition assay (tachyzoite growth, colorimetric). Type of data set: cell-based, Toxoplasma gondii. Particulars: 120 h, T. gondii RH-2 F in HFF, three experiments; for pIC50: read-out: IC50, median inhibitory concentration, a measure of tachyzoite inhibition; for IC90: read-out: IC90, concentration at which 90% of the tachyzoite growth is inhibited. On the procedure:
(§1) Using published methods[8]^,[19], all of the prepared N-substituted thiazolidinones derivatives were evaluated in vitro for (i) host cell cytotoxicity as well as for the ability to inhibit tachyzoite growth over a period of 5 days (Table 1), for (ii) the ability to inhibit tachyzoite invasion of host cells (Figure 1), and for (iii) the ability to inhibit intracellular tachyzoite replication (Figure 2).
(§2) Compounds were tested for the ability to inhibit in vitro tachyzoite (T. gondii RH-2 F (50839); ATCC, VA) and human foreskin fibroblast (HFF; ATCC) growth for 120 h using a published colorimetric assay[8]^,[19]. Stock solutions of all compounds were 10 mM in DMSO. Serial 0.5 log10 dilutions (320–0.032 μM) of each compound were tested. Data from three separate experiments were analysed and the IC50, IC90, and TD50 calculated using Calcusyn software (Biosoft, Cambridge, UK). The therapeutic index (TI), a measure of specific anti-T. gondii activity, was calculated with the formula shown under Table 1.
We explored the chemical space and the influence on the biological activity of different groups (substituted aromatic and bicyclic rings) at the lactam NH of the core nucleus. […] In the five-day growth inhibition assay, compounds were added only once, just before addition of tachyzoites, and thus were present for multiple cycles, up to 20, of parasite replication.

For data set [2], the system named is human foreskin fibroblast (HFF). Put plainly: Five-day growth inhibition assay, host cell cytotoxicity. The conditions noted are these: 120 h. As to the method:
as §1, §2

The mark [3] stands for this setting: HFF cells, top concentration 320 μM.

As to `O=C1C(O)=C([C@H]2CC[C@H](c3ccc(Cl)cc3)CC2)C(=O)c2ccccc21` [Atovaquone, reference compound], in data set [1] (Toxoplasma gondii), the pIC50 was 6.70 and the IC90 worked out at 2 µM. In addition, in data set [2] (human), the “TD50, median toxicity dose, a measure of cytotoxicity against host cells” value (from here on “TD50, median toxicity dose, a measure”) worked out at 24 µM.
Take `CCCCC(CC)=NN=C1SCC(=O)N1Cc1ccccc1[N+](=O)[O-]` [Compound 1, 2-((Heptan-3-ylidene)hydrazono)-3-(2-nitrobenzyl)thiazolidin-4-one]: the melting point lay in the range of 67 to 69 °C. Besides, in data set [1] (Toxoplasma gondii), the pIC50 is 4.70 and the IC90 came out at 111 µM. Also, the “TD50, median toxicity dose, a measure” value in data set [2] (human) is 236 µM.
For `CC(=NN=C1SCC(=O)N1Cc1ccccc1[N+](=O)[O-])c1cccs1` [Compound 2, 3-(2-Nitrobenzyl)-2-((1-(thiophen-2-yl)ethylidene)hydrazono)thiazolidin-4-one] the same measures were 150 to 151 °C, 4.43, 155 µM and 280 µM.
On to `CCCCC(CC)=NN=C1SCC(=O)N1Cc1cccc([N+](=O)[O-])c1` [Compound 4, 2-((Heptan-3-ylidene)hydrazono)-3–(3-nitrobenzyl)thiazolidin-4-one], for which, in data set [1] (Toxoplasma gondii), the pIC50 is 4.36 and the IC90 came out at 138 µM. Further, the “TD50, median toxicity dose, a measure” value in data set [2] (human) came out at 68 µM.
Molecule `CC(=NN=C1SCC(=O)N1Cc1cccc([N+](=O)[O-])c1)c1cccs1` [Compound 5, 3-(3-Nitrobenzyl)-2-((1-(thiophen-2-yl)ethylidene)hydrazono)thiazolidin-4-one] displayed a melting point of 165 to 170 °C. Further, in data set [1] (Toxoplasma gondii), the pIC50 is 4.28 and the IC90 is 171 µM. Besides, the “TD50, median toxicity dose, a measure” value in data set [2] (human) is at least 320 µM.
As for `CC(=NN=C1SCC(=O)N1Cc1cccc([N+](=O)[O-])c1)c1ccc[cH-]1.[Fe+2].c1cc[cH-]c1` [Compound 6, 3-(3-Nitrobenzyl)-2-((1-(ferrocen-2-yl)ethylidene)hydrazono)thiazolidin-4-one], in data set [1], the pIC50 was 4.62 and the IC90 is 152 µM. In addition, the “TD50, median toxicity dose, a measure” value in data set [2] (setting [3]) is at least 320 µM.
For the molecule `CCCCC(CC)=NN=C1SCC(=O)N1Cc1ccc([N+](=O)[O-])cc1` [Compound 7, 2-((Heptan-3-ylidene)hydrazono)-3-(4-nitrobenzyl)thiazolidin-4-one], in data set [1] (Toxoplasma gondii), the pIC50 is 4.49 and the IC90 was 128 µM. Moreover, the “TD50, median toxicity dose, a measure” value in data set [2] (human) was 98 µM.
With `CCCCC(CC)=NN=C1SCC(=O)N1Cc1ccccc1F` [Compound 10, 3-(2-Fluorobenzyl)-2-((heptan-3-ylidene)hydrazono)thiazolidin-4-one], in data set [1] (Toxoplasma gondii), the pIC50 was 4.62 and the IC90 was determined as 104 µM. Also, the “TD50, median toxicity dose, a measure” value in data set [2] (human) worked out at 90 µM.
As to `CC(=NN=C1SCC(=O)N1Cc1ccccc1F)c1cccs1` [Compound 11, 3-(2-Fluorobenzyl)-2-((1-(thiophen-2-yl)ethylidene)hydrazono)thiazolidin-4-one], the melting point was 80 to 85 °C. In data set [1] (Toxoplasma gondii), the pIC50 was 4.60 and the IC90 came to 103 µM. For the same molecule, the “TD50, median toxicity dose, a measure” value in data set [2] (human) worked out at 82 µM.
As to `CCCCC(CC)=NN=C1SCC(=O)N1Cc1cccc(F)c1` [Compound 13, 3-(3-Fluorobenzyl)-2-((heptan-3-ylidene)hydrazono)thiazolidin-4-one], the melting point fell in the range of 30 to 31 °C. Besides, in data set [1] (Toxoplasma gondii), the pIC50 was 4.74 and the IC90 turned out to be 99 µM. In data set [2] (human), the “TD50, median toxicity dose, a measure” value turned out to be 246 µM.
For `CC(=NN=C1SCC(=O)N1Cc1cccc(F)c1)c1cccs1` [Compound 14, 3-(3-Fluorobenzyl)-2-((1-(thiophen-2-yl)ethylidene)hydrazono)thiazolidin-4-one] the same measures were 84 to 85 °C, 4.35, 147 µM and 178 µM.
In the case of `CCCCC(CC)=NN=C1SCC(=O)N1Cc1ccc(F)cc1` [Compound 16, 3–(4-Fluorobenzyl)-2-((heptan-3-ylidene)hydrazono)thiazolidin-4-one], in data set [1] (Toxoplasma gondii), the pIC50 is 4.54 and the IC90 came out at 107 µM. Also, the “TD50, median toxicity dose, a measure” value in data set [2] (human) came out at 192 µM.
As for `CCCCC(CC)=NN=C1SCC(=O)N1Cc1ccccc1Cl` [Compound 19, 3-(2-Chlorobenzyl)-2-((heptan-3-ylidene)hydrazono)thiazolidin-4-one], in data set [1] (Toxoplasma gondii), the pIC50 is 4.41 and the IC90 was determined as 183 µM. Moreover, in data set [2] (human), the “TD50, median toxicity dose, a measure” value was found to be 95 µM.
For the molecule `CC(=NN=C1SCC(=O)N1Cc1ccccc1Cl)c1ccc[cH-]1.[Fe+2].c1cc[cH-]c1` [Compound 21, 3-(2-Chlorobenzyl)-2-((1-(ferrocen-2-yl)ethylidene)hydrazono)thiazolidin-4-one], in data set [1], the pIC50 is 5.05 and the IC90 amounted to 24 µM. Also, the “TD50, median toxicity dose, a measure” value in data set [2] (setting [3]) is at least 320 µM.
As for `CCCCC(CC)=NN=C1SCC(=O)N1Cc1cccc(Cl)c1` [Compound 22, 3-(3-Chlorobenzyl)-2-((heptan-3-ylidene)hydrazono)thiazolidin-4-one], in data set [1] (Toxoplasma gondii), the pIC50 was 4.72 and the IC90 is 106 µM. The “TD50, median toxicity dose, a measure” value in data set [2] (human) worked out at 165 µM.
On to `CC(=NN=C1SCC(=O)N1Cc1cccc(Cl)c1)c1ccc[cH-]1.[Fe+2].c1cc[cH-]c1` [Compound 24, 3-(3-Chlorobenzyl)-2-((1-(ferrocen-2-yl)ethylidene)hydrazono)thiazolidin-4-one], for which, in data set [1], the pIC50 was 5.10 and the IC90 was found to be 17 µM. Also, the “TD50, median toxicity dose, a measure” value in data set [2] (setting [3]) was at least 320 µM.
Consider `CCCCC(CC)=NN=C1SCC(=O)N1Cc1ccc(Cl)cc1` [Compound 25, 3-(4-Chlorobenzyl)-2-((heptan-3-ylidene)hydrazono)thiazolidin-4-one], for which, in data set [1] (Toxoplasma gondii), the pIC50 was 4.29 and the IC90 came to 131 µM. In addition, the “TD50, median toxicity dose, a measure” value in data set [2] (human) was determined as 244 µM.
For `CCCCC(CC)=NN=C1SCC(=O)N1Cc1cccc2ccccc12` [Compound 28, 2-((Heptan-3-ylidene)hydrazono)-3-(naphthalen-1-ylmethyl)thiazolidin-4-one] the same measures were 4.43, 138 µM and 271 µM.
For `CCCCC(CC)=NN=C1SCC(=O)N1CN1C(=O)c2ccccc2C1=O` [Compound 31, 2-((2-((Heptan-3-ylidene)hydrazono)-4-oxothiazolidin-3-yl)methyl)isoindoline-1,3-dione] the same measures were 4.06, 402 µM and at least 320 µM.
For `CC(=NN=C1SCC(=O)N1CN1C(=O)c2ccccc2C1=O)c1ccc[cH-]1.[Fe+2].c1cc[cH-]c1` [Compound 33, 2-((4-Oxo-2-((1-(ferrocen-2-yl)ethylidene)hydrazono)thiazolidin-3-yl)methyl)isoindoline-1,3-dione], in data set [1], the pIC50 is 4.09 and the IC90 is 286 µM. Besides, the “TD50, median toxicity dose, a measure” value in data set [2] (setting [3]) was found to be 138 µM.
